Laboratory results taken from PubChem BioAssay (NCI).
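Values below derive from 48-hour exposures of cells grown in 96-well plates, with endpoints linearly interpolated between the two concentrations bracketing the appropriate inhibition level. The concentration for 50% growth inhibition is given as GI50. Definition used: TGI = concentration required for complete inhibition of growth.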

Key:
Test in all cases: inhibition of tumour cell growth, NCI panel, 48 h
NCI-H23 lung = tested on: NCI-H23 lung
CAKI-1 renal = tested on: CAKI-1 renal
MALME-3M melanoma = tested on: MALME-3M melanoma
RPMI-8226 leukemia = tested on: RPMI-8226 leukemia
RXF 393 renal = tested on: RXF 393 renal
HCT-15 colon = tested on: HCT-15 colon
CCRF-CEM leukemia = tested on: CCRF-CEM leukemia
TK-10 renal = tested on: TK-10 renal
IGROV1 ovarian = tested on: IGROV1 ovarian
ACHN renal = tested on: ACHN renal

Row | SMILES | TGI (NCI-H23 lung) [µM] | TGI (CAKI-1 renal) [µM] | TGI (MALME-3M melanoma) [µM] | TGI (RPMI-8226 leukemia) [µM] | TGI (RXF 393 renal) [µM] | TGI (HCT-15 colon) [µM] | TGI (CCRF-CEM leukemia) [µM] | TGI (TK-10 renal) [µM] | TGI (IGROV1 ovarian) [µM] | GI50 (NCI-H23 lung) [µM] | GI50 (CAKI-1 renal) [µM] | GI50 (MALME-3M melanoma) [µM] | GI50 (RPMI-8226 leukemia) [µM] | GI50 (RXF 393 renal) [µM] | GI50 (HCT-15 colon) [µM] | GI50 (CCRF-CEM leukemia) [µM] | GI50 (TK-10 renal) [µM] | GI50 (IGROV1 ovarian) [µM] | GI50 (ACHN renal) [µM] | TGI (ACHN renal) [µM]
1 | O=C1OCc2cc3cc4c(cc3c(-c3ccc5c(c3)OCO5)c21)OCO4 (tested in a mixture with another compound) | > 100 | 86.7 | > 100 | > 100 | 22.5 | > 100 | > 100 | 50.8 | 66.7 | – | – | – | – | – | – | – | – | – | – | –
2 | CN1CC(CNC(=O)OCc2ccccc2)CC2c3cccc4c3c(cn4C)CC21 (configuration not stated) | 10.6 | 3.65 | 3.14 | 5.36 | 3.2 | 3.52 | 7.81 | 3.67 | 4.49 | 2.61 | 1.68 | 1.57 | 2.14 | 1.74 | 1.69 | 2.48 | 1.92 | 1.77 | 2.29 | 5.58
3 | COc1ccc(OC)c(CC(C)N)c1 (configuration not stated) | > 100 | > 100 | > 100 | > 100 | > 100 | > 100 | > 100 | > 100 | > 100 | – | – | – | – | – | – | – | – | – | – | > 100
4 | COc1c(OC/C=C(\C)CCC=C(C)C)ccc2ccc(=O)oc12 | > 100 | > 100 | – | > 100 | – | > 100 | > 100 | > 100 | > 100 | – | – | – | – | – | – | – | – | – | – | > 100
5 | CC(C)(C)OC(=O)NC1CCC(C(C)(C)C)CC1 (configuration not stated) | > 100 | – | > 93.8 | > 100 | > 92.2 | > 100 | > 100 | – | > 100 | – | – | – | – | – | – | – | – | – | – | –
6 | C=CCSSCC=C | > 95.9 | > 100 | > 100 | > 80.4 | > 74 | > 100 | > 100 | > 100 | > 100 | – | – | – | – | – | – | – | – | – | – | > 100
7 | CCCC(=O)O.CCCC(=O)O.CCCC(=O)O.CCCC(=O)O.[Rh].[Rh] | – | 0.106 | 0.102 | 0.112 | 0.052 | 0.762 | 1.08 | – | 0.73 | – | 0.035 | 0.0309 | 0.0243 | 0.0224 | 0.155 | 0.0277 | – | 0.189 | 0.0451 | 0.212
8 | O=C1OC2CC=CC1C2 (configuration not stated) | > 100 | – | > 100 | > 100 | > 100 | > 100 | > 100 | – | > 100 | – | – | – | – | – | – | – | – | – | – | –
9 | SC1CCCN(Cc2ccccc2)C1 (configuration not stated) | 81.5 | > 100 | – | 46.6 | > 100 | > 100 | – | > 100 | > 100 | – | – | – | – | – | – | – | – | – | – | > 100
10 | O=C(/C=C/c1ccccc1)N1CCCCC1 | > 100 | > 100 | – | > 100 | > 100 | > 100 | > 100 | > 100 | > 100 | – | – | – | – | – | – | – | – | – | – | > 100
11 | C=C1C(=O)OC2CC1CCC1(C)OC1CCC(C)=CCCC2(C)O (configuration not stated) | 7.25 | 7.7 | 12.2 | 7.18 | 3.61 | 7.79 | 4.56 | – | 15.8 | – | – | – | – | – | – | – | – | – | – | –
